Five compounds from US7524849B2, “5-arylpyrimidines as anticancer agents” (Wyeth Holdings Corporation, priority 2003, dated 2009) can be followed below.

For series [1], the system named is KB-V1 cells. The series can be described thus: MTS cytotoxicity test with KB-V1 cells (very high P-glycoprotein). The series is classed as cell-based, human. The settings on record: for IC50: KB VI cells, mean of 2 experiments; for Ratio VI/KB: IC50 on KB VI cells/IC50 on KB cells; for recognition by P-glycoprotein: inferred from change in IC50 KB-V1 vs KB. From the text:
(§1) Human cancer cell lines, unless otherwise noted, are obtained from the American Type Culture Collection (Rockville, Md.). The following drug-sensitive parental cell lines, and their derived drug-resistant counterparts, are obtained from the originators as listed: (a) S1 (parental line from a subclone of human colon carcinoma line LS174T) and derived S1-M1-3.2 (herein called S1-M1) which expresses the MXR drug transporter protein, are provided by Dr. L. Greenberger, Wyeth Research (Rabindran, S. K., He, H., Singh, M., Brown, E., Collins, K. I., Annable, T., and Greenberger, L. M. Reversal of a novel multidrug resistance mechanism in human colon carcinoma cells by fumitremorgin C. Cancer Res., 58: 5850-5858, 1998); (b) parental HL-60 human promyelocytic leukemia line and derived HL-60/ADR, which expresses the MRP1 drug transporter protein, are provided by Dr. M. Center, University of Kansas (McGrath, T., and Center, M. S. Adriamycin resistance in HL60 cells in the absence of detectable P-glycoprotein. Biochem. Biophys. […] J. Biol. Chem., 261: 7762-7770, 1986) via Dr. L. Greenberger, Wyeth Research.
(§2) The assay, which is sold in kit form by Promega (Madison, Wis.; CellTiter 96 AQueous Non-Radioactive Cell Proliferation Assay), is based on the conversion by viable cells, but not by dead cells, of the tetrazolium salt, MTS (3-(4,5-dimethylthiazol-2-yl)-5-(3-carboxymethoxyphenyl)-2-(4-sulphophenyl)-2H-tetrazolium, inner salt), into a water-soluble colored formazan which is detected by spectrophotometry. Compounds are tested at nine concentrations, in order to determine IC50 values. For the test procedure, cells are harvested by trypsinization, washed, counted and distributed to wells of 96-well flat-bottom microtiter plates at 1000 cells per well in 200 μL of medium. In addition, one row of wells on a separate plate receives cells as above (“time 0” plate). All plates are incubated at 37° in humidified 5% CO2 in air for about 24 hr.
(§3) On day 2, compounds for test are diluted and added to wells. Compounds are dissolved in DMSO at 10 mg/mL. For each compound, nine serial 2-fold dilutions are prepared in DMSO. Ten μL of each dilution in DMSO are transferred to 100 μL of medium, mixed well, and then 5 μL of this dilution are transferred in quadruplicate to wells containing cells. […] Plates are returned to the incubator for three days. At the time of drug addition to the experimental plates, the MTS assay is run on the “time 0” plate. This produces the “time 0 MTS value” which is related to the number of viable cells per well at the time of drug addition.
(§4) After three days of culture with test compounds (day 5 overall), the MTS assay is done on all wells of the experimental plates. The absorbance values of the quadruplicate sample wells are averaged and divided by the average of the “time 0” values. […] The nine values for each compound are plotted against concentration, and the concentration that produces a relative color yield half way between the maximum and minimum is taken as the IC50 value.

The test system of series [2] is S1 cells. Put plainly: MTS cytotoxicity test with S1 cells. The series is classed as cell-based, human. The settings on record: mean of 2 experiments.
Source text: as §1, §2, §3, §4
(§5) S1-M1 cells overexpress the MXR transporter which mediates resistance to some chemotherapeutics (Gottesman, M. M., Fojo, T., and Bates, S. E. Miltidrug resistance in cancer: role of ATP-dependent transporters. Nature Rev. Cancer, 2: 48-58, 2002). The IC50 values of representative examples of this invention, as well as reference compounds, on S1-M1 are compared to values on the sensitive parental S1 line.

The test system of series [3] is HL-60/ADR cells. The series can be described thus: MTS cytotoxicity test with HL-60/ADR cells (MRP1). The series is classed as cell-based, human. The settings on record: for IC50: HL-60/ADR cells, mean of 2 experiments; for Ratio: IC50 on HL-60/ADR cells/IC50 on HL-60 cells.
Source text: as §1, §2, §3, §4
(§6) HL-60/ADR cells overexpress the multidrug resistance protein MRP1 which mediates resistance to some chemotherapeutics (Gottesman, M. M., Fojo, T., and Bates, S. E. Multidrug resistance in cancer: role of ATP-dependent transporters. Nature Rev. Cancer, 2: 48-58, 2002). The IC50 values of representative examples of this invention, as well as reference compounds, on HL-60/ADR are compared to values on the sensitive parental HL-60 line.
(In general: Tetrazolium assays rely on reduction of a dye to a coloured formazan, in cell work by metabolically active cells.)

Series [4] relates to HL-60 cells. The series can be described thus: MTS cytotoxicity test with HL-60 cells. The format is cell-based, human. The settings on record: mean of 2 experiments.
Source text: as §1, §2, §3, §4, §6

In series [5] the test system is KB-8-5 cells. Put plainly: MTS cytotoxicity test with KB-8-5 cells (moderate P-glycoprotein). The format is cell-based, human. The settings on record: for IC50: KB 8.5 cells, mean of 2 experiments; for Ratio 8.5/KB: IC50 on KB 8.5 cells/IC50 on KB cells.
Source text: as §1, §2, §3, §4

The subject of series [6] is KB cells. The series can be described thus: MTS cytotoxicity test with KB cells. The note with it: mean of 2 experiments. The series is classed as cell-based, human.
Source text: as §1, §2, §3, §4

Series [7] concerns S1-M1 cells. Put plainly: MTS cytotoxicity test with S1-M1 cells (MXR). The note with it: for IC50: S1-M1 cells, mean of 2 experiments; for Ratio: IC50 on S1-M1 cells/IC50 on S1 cells. The format is cell-based, human.
Source text: as §1, §2, §3, §4, §5

The subject of series [8] is COLO 205 cells. Put plainly: MTS cytotoxicity test with COLO 205 cells. The format is cell-based, human. The note with it: three days with compound. As for the experimental part:
as §2
On day 2, compounds for test are diluted and added to wells. Compounds are dissolved in DMSO at 10 mg/mL. For each compound, nine serial 2-fold dilutions are prepared in DMSO. Ten μL of each dilution in DMSO are transferred to 100 μL of medium, mixed well, and then 5 μL of this dilution are transferred in quadruplicate to wells containing cells. The final high concentration of each compound is typically 5 μM. Plates are returned to the incubator for three days. At the time of drug addition to the experimental plates, the MTS assay is run on the “time 0” plate. This produces the “time 0 MTS value” which is related to the number of viable cells per well at the time of drug addition.
After three days of culture with test compounds (day 5 overall), the MTS assay is done on all wells of the experimental plates. The absorbance values of the quadruplicate sample wells are averaged and divided by the average of the “time 0” values. The average of control wells without drug, divided by the average “time 0” value, gives the maximal relative increase in MTS color yield due to cell growth during the final three days of culture. The average of control wells with high drug concentration, divided by the “time 0” value, gives the minimal relative color yield for cells that were completely killed. The nine values for each compound are plotted against concentration, and the concentration that produces a relative color yield half way between the maximum and minimum is taken as the IC50 value.
COLO 205 is a human colon carcinoma cell line that is used for comparative testing of the examples of this invention and several reference compounds. This line is sensitive to paclitaxel and vincristine.

Series [9] relates to H157 Human Non-Small Cell Lung Carcinoma. The note with it: for T/C on day 0 / T/C on day 3 / T/C on day 7 / T/C on day 10 / T/C on day 13: schedule day 0.
Method: The ability of compounds of this invention to inhibit tumor growth in animals is studied in the athymic mouse xenograft standard pharmacological test. Female nu/nu mice in an outbred albino background are obtained from Charles River Laboratories (Wilmington, Mass.). Animals are injected subcutaneously on the flank with the desired tumor cell suspension. Several days later, mice with tumors of approximately 100 mm^3 are selected from those injected (staged) and randomly distributed into groups of 5-10. The day of staging is called day 0. Compounds of the invention, formulated in saline, are administered to animals by intravenous injection or oral gavage on various schedules starting on day 0 or 1, as noted in the tables. The control group in each experiment is dosed with vehicle on the same schedule. Tumor size is measured every 3-7 days with calipers in two orthogonal dimensions, and tumor volume is calculated from the formula volume=[(length×width^2)/2].
Tumor/Control (T/C) is obtained by dividing the mean tumor volume of the treated group by the mean tumor volume of the control group on each measurement day. […] A p value≦0.05, determined by one-side Student's t-test, is required for statistical significance. A treatment dose is defined as toxic if more than 30% of the animals die from a compound-related toxicity.

Structures are written as SMILES. Read-outs that look alike come from different tables or passages of the source. Marks after values point to notes of the source that are not given here. Where only a bound is given, the exact number is not on record here.

The term IC50 denotes the concentration that gives 50% inhibition.
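Throughout, for T/C on day 0: subcutaneous flank tumors in female athymic nu/nu mice, staged near 100 mm^3 on day 0, tumor volume from caliper measurements, vehicle-dosed controls on the same schedule.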
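Throughout, for T/C on day 10: subcutaneous flank tumors in female athymic nu/nu mice, staged near 100 mm^3 on day 0, tumor volume from caliper measurements, vehicle-dosed controls on the same schedule.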
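Throughout, for T/C on day 3: subcutaneous flank tumors in female athymic nu/nu mice, staged near 100 mm^3 on day 0, tumor volume from caliper measurements, vehicle-dosed controls on the same schedule.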
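Throughout, for T/C on day 7: subcutaneous flank tumors in female athymic nu/nu mice, staged near 100 mm^3 on day 0, tumor volume from caliper measurements, vehicle-dosed controls on the same schedule.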

On to `COc1cccc2c1C(=O)c1c(O)c3c(c(O)c1C2=O)C[C@@](O)(C(=O)CO)C[C@@H]3O[C@H]1C[C@H](N)[C@H](O)[C@H](C)O1` [Doxorubicin, reference compound], for which the concentration for half-maximal inhibition (IC50) was more than 300 nM in [1] (Homo sapiens, KB-V1); 61 nM in series [2] (Homo sapiens); more than 3000 nM in series [3] (Homo sapiens, HL60/ADR); 40 nM in [4] (Homo sapiens); 255 nM in [5] (Homo sapiens); 38 nM in series [6] (Homo sapiens). This compound also came in with an IC50 in series [7] (Homo sapiens) of 2880 nM. Further, the “Ratio VI/KB” value in series [1] and in series [1] (listed as doxorubicin) was more than 79 in each case. Besides, the Ratio was more than 75 in series [3], more than 75 in series [3] (listed as doxorubicin) and 47 in series [7]. Moreover, the “Ratio 8.5/KB” value in [5] is on record as 6.8.
On to `CNc1nc(Cl)c(-c2c(F)cc(OCCCN(C)C)cc2F)c(NCC(F)(F)F)n1.O=C(O)C(F)(F)F` [Example 20a, 6-Chloro-5-{4-[3-(dimethylamino)propoxy]-2,6-difluorophenyl}-N^2-methyl-N^4-(2,2,2-trifluoroethyl)pyrimidine-2,4-diamine trifluoroacetic acid salt], for which the IC50 in series [1] (Homo sapiens, KB-V1) worked out at 140 nM; in [2] (Homo sapiens), 95 nM; in [3] (Homo sapiens, HL60/ADR) it was 68 nM; in series [4] (Homo sapiens), 72 nM; in [5] (Homo sapiens), 57 nM; in series [8] (Homo sapiens, 72 h) it was 56 nM. Moreover, the IC50 worked out at 26 nM in series [6] (Homo sapiens) and 82 nM in series [7] (Homo sapiens). Also, the “Ratio VI/KB” value in [1] was determined as 5.5. In addition, in series [1], the “recognition by P-glycoprotein” value is “show recognition by P-glycoprotein, but much less than that shown by paclitaxel and vincristine”. For the same compound, the Ratio in series [3] and in [7] was 0.9 each time.
Take `CN(C)CCCOc1cc(F)c(-c2c(Cl)nc(-c3cnccn3)nc2NCC(F)(F)F)c(F)c1.Cl` [Example 25a, 6-Chloro-5-{4-[3-(dimethylamino)propoxy]-2,6-difluorophenyl}-2-pyrazin-2-yl-N-(2,2,2-trifluoroethyl)pyrimidin-4-amine hygrogen chloride]: in [1], the “Ratio VI/KB” value stood at 4.9. Moreover, the IC50 was 99 nM in series [1]; 27 nM in series [2]; 21 nM in series [3]; 23 nM in series [4]; 24 nM in series [5]; 18 nM in series [8]. The IC50 in series [6] worked out at 20 nM; in series [7], 36 nM. Also, the “recognition by P-glycoprotein” value in series [1] is “show recognition by P-glycoprotein, but much less than that shown by paclitaxel and vincristine”. In addition, the Ratio in series [3] is 0.9; in series [7] it was 1.3. In addition, the “T/C on day 0” value in series [9] (5 mg/kg IV, H157 (Table 10)) is reported as 1.02; in [9] (10 mg/kg IV, H157), 1.01. The “T/C on day 3” value in series [9] (5 mg/kg IV, H157 (Table 10)) is listed as 0.69*; in [9] (10 mg/kg IV, H157), 0.49**. Besides, the “T/C on day 7” value is listed as 0.44** in [9] (5 mg/kg IV, H157 (Table 10)) and 0.36** in series [9] (10 mg/kg IV, H157). For the same compound, the “T/C on day 10” value in series [9] (5 mg/kg IV, H157 (Table 10)) is recorded as 0.29**; in [9] (10 mg/kg IV, H157) it was 0.22**. Moreover, the “T/C on day 13” value in [9] (5 mg/kg IV, H157 (Table 10)) is recorded as 0.23**; in series [9] (10 mg/kg IV, H157) it was 0.12**. Moreover, the compound toxicity result in series [9] (H157 NSCLC, intravenously on day 0, highest dose (10 mg/kg)) is on record as “some compound toxicity is observed”.
With `CN(C)CCCOc1cc(F)c(-c2c(Cl)nc(-c3ccc4ccccc4n3)nc2NCC(F)(F)F)c(F)c1` [Example 30, 6-Chloro-5-{4-[3-(dimethylamino)propoxy]-2,6-difluorophenyl}-2-quinolin-2-yl-N-(2,2,2-trifluoroethyl)pyrimidin-4-amine], the 50% inhibitory concentration (IC50) came to 82 nM in [1] (Homo sapiens, KB-V1); 138 nM in [2] (Homo sapiens); 71 nM in series [3] (Homo sapiens, HL60/ADR); 88 nM in series [4] (Homo sapiens); 68 nM in series [5] (Homo sapiens); 7.4 nM in [8] (Homo sapiens, 72 h). Moreover, the values for the IC50 in series [6] (Homo sapiens) and in series [7] (Homo sapiens) were 60 nM and 201 nM, respectively. The Ratio in series [3] turned out to be 0.8; in series [7], 1.5.
For `O=C1c2c(O)ccc(O)c2C(=O)c2c(NCCNCCO)ccc(NCCNCCO)c21` [Mitoxantrone, reference compound], the IC50 in [1] (Homo sapiens, KB-V1) was determined as 401 nM; in series [2] (Homo sapiens), 25 nM; in series [3] (Homo sapiens, HL60/ADR) it was 259 nM; in [4] (Homo sapiens) it was 17 nM; in series [5] (Homo sapiens) it was 256 nM; in [6] (Homo sapiens), 132 nM. In series [7] (Homo sapiens), this compound showed an IC50 of more than 3000 nM. Further, the “Ratio VI/KB” value in series [1] turned out to be 3.0. The Ratio in series [3] is reported as 15; in series [7], more than 120; in series [7] (listed as mitoxantrone), more than 120. Besides, in [5], the “Ratio 8.5/KB” value was 1.9.
